Test results from ChEMBL document CHEMBL1201862, “PubChem BioAssay data set” (2004).
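The compound was tested at five concentrations on cells cultured in 96-well plates, with a 48-hour exposure period. The concentration for 50% growth inhibition is given as GI50.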 The source made the active and inactive calls. Cut-off read from the data, not from the text of the source: active = GI50 up to about 1.1 µM and inactive = higher.

Columns and labels:
Test in all cases: NCI tumour cell line growth inhibition, 48 h
786-0 = tested on: 786-0
COLO 205 = tested on: COLO 205
EKVX = tested on: EKVX
HOP-92 = tested on: HOP-92
K562 = tested on: K562
KM12 = tested on: KM12
LOX IMVI = tested on: LOX IMVI
M19-MEL = tested on: M19-MEL
NCI-H23 = tested on: NCI-H23
OVCAR-5 = tested on: OVCAR-5
OVCAR-8 = tested on: OVCAR-8
SF-295 = tested on: SF-295
SK-MEL-2 = tested on: SK-MEL-2
TK-10 = tested on: TK-10
U-251 = tested on: U-251
UACC-257 = tested on: UACC-257
NCI-H226 = tested on: NCI-H226

SMILES | GI50 (786-0) | GI50 (COLO 205) | GI50 (EKVX) | GI50 (HOP-92) | GI50 (K562) | GI50 (KM12) | GI50 (LOX IMVI) | GI50 (M19-MEL) | GI50 (NCI-H23) | GI50 (OVCAR-5) | GI50 (OVCAR-8) | GI50 (SF-295) | GI50 (SK-MEL-2) | GI50 (TK-10) | GI50 (U-251) | GI50 (UACC-257) | GI50 (NCI-H226)
C/C=C/C=C/[C@H]1Cc2cc(O)cc(O)c2O1 | > 100 µM (inactive) | 55 µM (inactive) | 55.5 µM (inactive) | > 100 µM (inactive) | 37.2 µM (inactive) | 61 µM (inactive) | 47.9 µM (inactive) | 39.6 µM (inactive) | 51.5 µM (inactive) | > 100 µM (inactive) | 60.4 µM (inactive) | 57.3 µM (inactive) | > 100 µM (inactive) | > 100 µM (inactive) | 59.2 µM (inactive) | 28.4 µM (inactive) | 
C=CCC(OCCOCC)c1cc(OCCOCC)ccc1OC (configuration not stated) | > 100 µM (inactive) | > 100 µM (inactive) | > 100 µM (inactive) | > 100 µM (inactive) | > 100 µM (inactive) | > 100 µM (inactive) | > 100 µM (inactive) | > 100 µM (inactive) |  | > 100 µM (inactive) | > 100 µM (inactive) | > 100 µM (inactive) | > 100 µM (inactive) | > 100 µM (inactive) | > 100 µM (inactive) | > 100 µM (inactive) | > 100 µM (inactive)
O=C1N=C(Nc2ccccc2Cl)SC1C(=O)Nc1ccc([N+](=O)[O-])cc1[N+](=O)[O-] (configuration not stated) | > 100 µM (inactive) | > 100 µM (inactive) | > 100 µM (inactive) | 32.5 µM (inactive) | > 100 µM (inactive) | > 100 µM (inactive) |  | > 100 µM (inactive) | > 100 µM (inactive) | > 100 µM (inactive) | > 100 µM (inactive) | > 100 µM (inactive) | > 100 µM (inactive) | 51.6 µM (inactive) | > 100 µM (inactive) | > 100 µM (inactive) | 82.8 µM (inactive)
O=C(/C=C/c1ccccc1)c1ccc(NCc2nc3ccccc3[nH]2)cc1 | 3.81 µM (inactive) | 3.21 µM (inactive) | 8.65 µM (inactive) | 6.18 µM (inactive) | 2.51 µM (inactive) | 1.95 µM (inactive) | 1.69 µM (inactive) | 4.41 µM (inactive) | 2.55 µM (inactive) | 10.8 µM (inactive) | 3.49 µM (inactive) | 3.48 µM (inactive) | 12.7 µM (inactive) | 11.7 µM (inactive) | 1.91 µM (inactive) | 3.73 µM (inactive) | 4.19 µM (inactive)
O=C1C/C(=C/c2ccc(/C=C3/CC(=O)N(c4cccc(Br)c4)C3=O)cc2)C(=O)N1c1cccc(Br)c1 | 58.1 µM (inactive) | > 100 µM (inactive) | > 100 µM (inactive) | 50.2 µM (inactive) | > 67 µM (inactive) | > 100 µM (inactive) | > 100 µM (inactive) | > 100 µM (inactive) | > 100 µM (inactive) | > 100 µM (inactive) | > 100 µM (inactive) | 60.7 µM (inactive) | > 100 µM (inactive) | > 100 µM (inactive) | > 81.7 µM (inactive) | > 100 µM (inactive) | > 100 µM (inactive)
O=C(O)c1ccccc1[Se][Se]c1ccccc1C(=O)O | 75.2 µM (inactive) | > 100 µM (inactive) |  | 39 µM (inactive) | > 100 µM (inactive) | 26.8 µM (inactive) | 24.1 µM (inactive) | 41.4 µM (inactive) | 47.5 µM (inactive) |  | 43.5 µM (inactive) | 28.4 µM (inactive) | 44.4 µM (inactive) | > 100 µM (inactive) | 40.8 µM (inactive) | 49.5 µM (inactive) | 1.9 µM (inactive)
N#Cc1c(-c2ccco2)cc(-c2ccc(NCc3nc4ccccc4[nH]3)cc2)nc1N | 28.6 µM (inactive) | 21.6 µM (inactive) |  | 21.4 µM (inactive) | 24.3 µM (inactive) | 18.7 µM (inactive) | 18.7 µM (inactive) | 25.1 µM (inactive) | 20.2 µM (inactive) | 32.3 µM (inactive) | 20.4 µM (inactive) | 19.5 µM (inactive) | 20.3 µM (inactive) | 26.4 µM (inactive) | 25.9 µM (inactive) |  | 
CCN(CC)CC(=O)/C=C/c1ccc(C)cc1 | 17.6 µM (inactive) | 18.8 µM (inactive) |  | 30.1 µM (inactive) | 35.6 µM (inactive) | 17.5 µM (inactive) | 18.5 µM (inactive) | 17.6 µM (inactive) | 30.5 µM (inactive) | 42.3 µM (inactive) | 20.1 µM (inactive) | 32 µM (inactive) |  | 28.3 µM (inactive) | 16.5 µM (inactive) | 21.6 µM (inactive) | 22.1 µM (inactive)
Brc1ccc(C2SCc3nc4ccccc4n32)cc1 (configuration not stated) | 12.2 µM (inactive) | 12.7 µM (inactive) | 11.9 µM (inactive) | 1.06 µM (active) | 3.65 µM (inactive) | 5.98 µM (inactive) | 6.46 µM (inactive) | 12.4 µM (inactive) | 2.75 µM (inactive) | 5.4 µM (inactive) | 12.8 µM (inactive) | 11.5 µM (inactive) | 14.1 µM (inactive) | 13.8 µM (inactive) | 12 µM (inactive) |  | 17.4 µM (inactive)
[O-][S+]1Cc2ccccc2CS1 (configuration not stated) | 15.7 µM (inactive) | 15.4 µM (inactive) | 22.9 µM (inactive) | 14 µM (inactive) | 17.9 µM (inactive) | 35.1 µM (inactive) | 7.46 µM (inactive) | 17 µM (inactive) | 14.1 µM (inactive) | 18.2 µM (inactive) | 15 µM (inactive) | 31.6 µM (inactive) |  | 21.8 µM (inactive) | 10.7 µM (inactive) | 14.7 µM (inactive) | 87.1 µM (inactive)
O=C1C2=C(c3ccccc31)C(c1ccc(Cl)cc1)N1C(=O)CCSC1=N2 (configuration not stated) | > 100 µM (inactive) | > 100 µM (inactive) | 68.2 µM (inactive) | 31.4 µM (inactive) | 81.1 µM (inactive) | 99.5 µM (inactive) |  | > 100 µM (inactive) | 76.7 µM (inactive) | > 100 µM (inactive) | > 10 µM (inactive) | 99.3 µM (inactive) | > 100 µM (inactive) | > 100 µM (inactive) | > 100 µM (inactive) | > 100 µM (inactive) | 51.8 µM (inactive)
Cc1ccc(C)c(NC(=O)CC/C(=N\NC(=O)C(=O)NN)C(C)C(=O)c2ccc(O)cc2)c1 (configuration not stated) | > 100 µM (inactive) | > 100 µM (inactive) | > 100 µM (inactive) | > 100 µM (inactive) | > 100 µM (inactive) | > 100 µM (inactive) | > 100 µM (inactive) | > 100 µM (inactive) | > 100 µM (inactive) | > 100 µM (inactive) |  | > 100 µM (inactive) | > 100 µM (inactive) | > 100 µM (inactive) | > 100 µM (inactive) | > 100 µM (inactive) | > 100 µM (inactive)
COc1ccc(/C=C2\CCC(CCN(C)C)(C3=CCCC3)C2=O)cc1Br (configuration not stated) | 3.78 µM (inactive) | 1.58 µM (inactive) | 0.0306 µM (active) | 2.97 µM (inactive) | 2.58 µM (inactive) | 3.73 µM (inactive) | 4.06 µM (inactive) | 2.93 µM (inactive) | 13.9 µM (inactive) | 14 µM (inactive) | 9.08 µM (inactive) | 3.85 µM (inactive) | 10 µM (inactive) | 6.93 µM (inactive) | 5.82 µM (inactive) | 2.43 µM (inactive) | 16.9 µM (inactive)
